Among the test systems are SF-539; COLO 205; OVCAR-3; SK-OV-3; SNB-19; K562; SNB-75; TK-10; SK-MEL-5; UACC-62; HCT-15; UACC-257; Malme-3M; OVCAR-4; NCI-H522.
Common to all, as to test: NCI-60 cell line screen, 48 h

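How tested: cells in 96-well plates exposed to compound for 48 hours at five concentrations. At the GI50, growth is halved.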 Active and inactive are the calls of the source. Cut-off read from the data, not from the text of the source: active = GI50 up to about 1.1 µM and inactive = higher.

Take `CCN(CC)CCNC(=O)c1cccc2cc3ccccc3nc12`: the GI50 was 4.49 µM (inactive) in the assay on SF-539; 4.44 µM (inactive) with COLO 205; 11.6 µM (inactive) in the assay on OVCAR-3; 8.93 µM (inactive) in the assay with SK-OV-3; 7.45 µM (inactive) in the assay on SNB-19; 3.72 µM (inactive) in the assay on K562. Also, the GI50 in the assay on SNB-75 was 7.71 µM (inactive); in the assay with TK-10, 4.79 µM (inactive); in the assay with SK-MEL-5 it was 4.52 µM (inactive); with UACC-62 it was 4.79 µM (inactive); with HCT-15, 4.47 µM.

In the case of `NNC(=O)C(=O)N/N=C(\CCCC(=O)Nc1ccc(Cl)cc1)CC(=O)c1ccc(F)cc1`, the GI50 in the assay on COLO 205, with OVCAR-3, with UACC-257, in the assay on SNB-19, in the assay with Malme-3M and with SNB-75 was > 100 µM (inactive) in each case. The GI50 with TK-10 was > 100 µM (inactive); in the assay on SK-MEL-5 it was > 100 µM (inactive); with OVCAR-4, > 100 µM (inactive); with UACC-62 it was 3.43 µM (inactive).

Regarding `CN1CCc2c1nc(-c1ccc([N+](=O)[O-])cc1)c1c2N(C)CC1`, the GI50 in the assay with SF-539 is > 100 µM (inactive); in the assay with COLO 205, 54.6 µM (inactive); with OVCAR-3 it was 8.15 µM (inactive); with SK-OV-3, > 100 µM (inactive); with UACC-257, > 100 µM (inactive); in the assay with SNB-19 it was > 100 µM (inactive). Besides, the GI50 in the assay on K562 is 46 µM (inactive); with Malme-3M, > 100 µM (inactive); in the assay with SNB-75, > 100 µM (inactive); in the assay with TK-10 it was > 100 µM (inactive); with SK-MEL-5, 97.3 µM (inactive); in the assay on OVCAR-4 it was > 100 µM (inactive). For the same molecule, the GI50 with UACC-62 is > 100 µM (inactive); in the assay on HCT-15, 99.5 µM.

For the molecule `O=C(Nc1ccc([N+](=O)[O-])cc1)C1C(=O)C(=O)N(c2ccc([N+](=O)[O-])cc2)C1=O` (centres undefined), the GI50 in the assay on SF-539 was 94.8 µM (inactive); with COLO 205 it was 35.8 µM (inactive); with OVCAR-3 it was > 100 µM (inactive); with SK-OV-3, > 100 µM (inactive); in the assay with UACC-257, > 100 µM (inactive); in the assay on SNB-19, > 100 µM (inactive). For the same molecule, the GI50 in the assay on K562 is 8.07 µM (inactive); with Malme-3M it was > 100 µM (inactive); in the assay with SNB-75, > 100 µM (inactive); in the assay with TK-10 it was > 100 µM (inactive); in the assay with NCI-H522, 55.8 µM (inactive); in the assay on SK-MEL-5, 12 µM (inactive). The results for the GI50 in the assay on UACC-62 and in the assay with HCT-15 were 2.72 µM (inactive) and 61.1 µM, respectively.

In the case of `C/C=C1\C=C(OC)CN(CCc2c[nH]c3ccccc23)C1`, the GI50 with SF-539 is > 100 µM (inactive); in the assay on COLO 205, 34.3 µM (inactive); in the assay with OVCAR-3 it was 53.5 µM (inactive); in the assay on UACC-257, 48.4 µM (inactive); with SNB-19 it was > 100 µM (inactive); in the assay on K562, 72.3 µM (inactive). Also, the GI50 with Malme-3M is 22.5 µM (inactive); with SNB-75, 38.9 µM (inactive); with TK-10, > 100 µM (inactive); with NCI-H522, 46 µM (inactive); with SK-MEL-5, 20.2 µM (inactive); in the assay with OVCAR-4 it was 39.5 µM (inactive). Moreover, the GI50 in the assay with UACC-62 is 41.3 µM (inactive); in the assay on HCT-15, 56.6 µM.

For the molecule `CCOP(=O)(C/C(O)=C1\C(=O)C(CCCCNC(=O)OC(C)(C)C)N(Cc2ccccc2)C1=O)OCC` (centres undefined), the GI50 in the assay on SF-539, in the assay on COLO 205, in the assay on OVCAR-3, with SK-OV-3, in the assay with UACC-257 and in the assay with K562 was > 100 µM (inactive) each time. Also, the GI50 is > 100 µM (inactive) in the assay with Malme-3M; > 100 µM (inactive) with SNB-75; > 100 µM (inactive) in the assay on TK-10; 1.12 µM (inactive) with NCI-H522; > 100 µM (inactive) in the assay with SK-MEL-5; 94.2 µM (inactive) in the assay with OVCAR-4. For the same molecule, in the assay with UACC-62, the GI50 is > 100 µM (inactive).

`COC(=O)CCC(=O)Nc1cc(C)ccc1C`: the GI50 in the assay with SF-539, with COLO 205, with OVCAR-3, with SK-OV-3, in the assay on UACC-257 and in the assay with SNB-19 was > 100 µM (inactive) throughout. Further, the GI50 with K562, in the assay with Malme-3M, in the assay on SNB-75, in the assay with TK-10, in the assay with NCI-H522 and in the assay with SK-MEL-5 was > 100 µM (inactive) each time. Besides, the GI50 in the assay on OVCAR-4 and with UACC-62 was > 100 µM (inactive) in each case.

In the case of `CCc1cccc(C)c1NC(=O)CCc1nnc(S)[nH]1`, the GI50 in the assay with SF-539, in the assay on OVCAR-3, with SK-OV-3, in the assay with UACC-257, in the assay on SNB-19 and in the assay with K562 was > 100 µM (inactive) each time. The GI50 in the assay on Malme-3M, with TK-10, in the assay on NCI-H522, with SK-MEL-5, in the assay on OVCAR-4 and in the assay with UACC-62 was > 100 µM (inactive) in each case. Moreover, the GI50 in the assay with HCT-15 is above 100 µM.

For `COc1cccc(NC(=S)Nn2c(C)nc3ccccc3c2=O)c1`, the GI50 with SF-539, with COLO 205, with SK-OV-3, with UACC-257, with K562 and in the assay with Malme-3M was > 100 µM (inactive) throughout. Moreover, the GI50 in the assay with SNB-75 was > 100 µM (inactive); with TK-10 it was > 100 µM (inactive); in the assay with NCI-H522 it was > 100 µM (inactive); with SK-MEL-5, > 100 µM (inactive); in the assay on OVCAR-4, > 100 µM (inactive); in the assay on UACC-62 it was 71.6 µM (inactive). The molecule further came in with a GI50 with HCT-15 above 100 µM.

As for `CC(C)c1cccc(C(C)C)c1NC(=O)C(=O)C(C(=O)c1ccccc1-c1ccccc1)C1OC(=O)c2ccccc21` (centres undefined), the GI50 with SF-539 is 12.6 µM (inactive); in the assay with COLO 205, 30.9 µM (inactive); with UACC-257, 12.6 µM (inactive); in the assay on SNB-19 it was 16.8 µM (inactive); in the assay with K562 it was 21.4 µM (inactive); with Malme-3M, 14.8 µM (inactive). Moreover, the GI50 in the assay on TK-10 was 26.5 µM (inactive); in the assay on NCI-H522 it was 15.5 µM (inactive); with SK-MEL-5 it was 15.5 µM (inactive); in the assay on OVCAR-4, 16 µM (inactive); in the assay on UACC-62 it was 17.5 µM (inactive); with HCT-15, 18.4 µM.

On to `CC(=O)CCCCCCCCCCCC[C@@H]1CC[C@H](C)[C@H](O)N1`, for which the GI50 in the assay on COLO 205, in the assay with OVCAR-3, in the assay on SK-OV-3, in the assay with UACC-257, in the assay on SNB-19 and in the assay with K562 was > 100 µM (inactive) each time. In addition, the GI50 was > 100 µM (inactive) with Malme-3M; 89.1 µM (inactive) with SNB-75; > 100 µM (inactive) in the assay with TK-10; > 100 µM (inactive) in the assay with NCI-H522; 46.9 µM (inactive) with SK-MEL-5; 97.7 µM (inactive) in the assay on UACC-62. Also, in the assay on HCT-15, the GI50 was above 100 µM.

In the case of `CCOC1CC2OC(=O)C1C=C2C(=O)OC` (centres undefined), the GI50 in the assay with SF-539 was 24.8 µM (inactive); in the assay on COLO 205 it was 19.1 µM (inactive); in the assay on OVCAR-3 it was 28.4 µM (inactive); in the assay on SK-OV-3 it was > 100 µM (inactive); with UACC-257, 27.7 µM (inactive); in the assay with SNB-19, 28 µM (inactive). In addition, the GI50 was 25.8 µM (inactive) in the assay on K562; 20.5 µM (inactive) with Malme-3M; 37.8 µM (inactive) with TK-10; 12 µM (inactive) with NCI-H522; 36.4 µM (inactive) in the assay with SK-MEL-5; 23.1 µM (inactive) in the assay on OVCAR-4. Besides, the GI50 in the assay with UACC-62 was 30.5 µM (inactive); in the assay with HCT-15, 27.7 µM.

`CCN(CC)C(=O)C(C)n1cc(C)c(=O)[nH]c1=O` (centres undefined): the GI50 in the assay with SF-539, in the assay with COLO 205, in the assay with OVCAR-3, with SNB-19, with K562 and with Malme-3M was > 100 µM (inactive) in each case. For the same molecule, the GI50 in the assay on SNB-75 was 15.1 µM (inactive); with TK-10, > 100 µM (inactive); in the assay on NCI-H522, > 100 µM (inactive); in the assay with SK-MEL-5, > 100 µM (inactive); with OVCAR-4, > 100 µM (inactive); in the assay with UACC-62, > 100 µM (inactive). Further, the GI50 in the assay on HCT-15 is above 100 µM.

For the molecule `OCc1ccc2[n+](c1)CCC1c3ccccc3NC21` (centres undefined), the GI50 was > 300 µM (inactive) in the assay on SF-539; > 300 µM (inactive) with COLO 205; 240 µM (inactive) in the assay with OVCAR-3; > 300 µM (inactive) in the assay with SK-OV-3; 283 µM (inactive) in the assay with UACC-257; > 300 µM (inactive) in the assay on SNB-19. In addition, the GI50 in the assay with K562 is > 300 µM (inactive); with Malme-3M, 75.5 µM (inactive); in the assay with TK-10 it was > 300 µM (inactive); with NCI-H522, > 300 µM (inactive); in the assay with SK-MEL-5 it was 86.9 µM (inactive); in the assay on UACC-62, > 300 µM (inactive). This molecule came in with a GI50 with HCT-15 above 300 µM.

On to `Cc1cc2c(=O)n(-c3ccc(F)cc3)c(C)nc2c(C(=O)O)c1C`, for which the GI50 in the assay with SF-539, in the assay with COLO 205, in the assay on OVCAR-3, with SK-OV-3, with UACC-257 and in the assay on K562 was > 100 µM (inactive) in each case. Also, the GI50 with Malme-3M, with SNB-75, with TK-10, with SK-MEL-5, in the assay with OVCAR-4 and in the assay with UACC-62 was > 100 µM (inactive) each time. The same molecule had a GI50 in the assay with HCT-15 above 100 µM.
